According to patent publication US9067922B2, “Chemical compounds” (Pfizer Limited, priority 2013, dated 2015):

What follows are compounds tested against URAT-1 transporter (Homo sapiens (Human), UniProt Q96S37) (assay: URAT-1 inhibitor activity: [14C]-uric acid uptake in CHO-URAT1(L)GFP#8 (CHO#8) cells, scintillation proximity). Details: inhibition of [14C]-uric acid (30 nM) uptake into CHO#8 cells; compound 0 to 10 μM; 4 parameter logistic fit.
Type: cell-based
Text: The nucleotide sequence for the long isoform of URAT1 (NM_144585) was C-terminally fused to that of enhanced green fluorescent protein (eGFP) (hereinafter referred to as URAT1(L)GFP). The combined sequence was codon-optimised and custom synthesized. The synthesized sequence was generated in pDONR221 Gateway entry vector (Invitrogen Life Technologies) prior to cloning in pLenti6.3/V5 Gateway destination vector (Invitrogen Life Technologies).
Lentiviral particles were generated according to ViraPower HiPerform expression system procedure (Invitrogen Life Technologies) and used to transduce CHO cells. […] The clonal pools were sorted using fluorescence-activated cell sorting (FACS) on the basis of GFP expression with the gating set at the top 50% of expression into single cells which were subsequently expanded to generate clonal lines. […] This cell line was used for all screening activities and is referred to as CHO-URAT1(L)GFP#8 or CHO#8.
The potency of the compounds of formula (I) as inhibitors of the URAT-1 transporter was determined as follows.
CHO#8 cells were cultured in cell line maintenance flasks in medium consisting of Dulbecco's modified Eagle medium (DMEM) with high glucose and sodium pyruvate (4.5 g of glucose per liter, Invitrogen Life Technologies), supplemented with heat-inactivated foetal bovine serum (FBC, 10% v/v), 1×NEAA (non-essential amino acids) and blasticidin (10 μg/ml). Cultures were grown in 175 cm^2 tissue culture flasks in a humidified incubator at approximately 37° C. in approximately 95% air/5% CO2. Near confluent CHO#8 cell cultures were harvested by trypsinisation, re-suspended in culture medium and the process was repeated once or twice weekly to provide sufficient cells for use.
Assay ready flasks were generated by the same method, except the cells were not cultured in blasticidin.
Assay ready frozen cells were generated by freezing 40,000,000 cells in 1 ml of FBS (without blasticidin) containing 10% DMSO per vial. One vial was sufficient for 5 assay plates. Each vial was thawed rapidly to 37° C., washed and re-suspended in pre-warmed culture medium for seeding onto assay plates.
CHO#8 cells were seeded onto Cytostar™ 96-well plates at a density of […]. The cells were cultured for 1 day at approximately 37° C. in a humidified incubator containing approximately 5% CO2 in air. After approximately 24 hours culture, cells were used for uptake experiments.
On the day of assay, culture medium was removed from the wells and the cells were washed once with 50 μL of chloride-containing buffer (136.7 mM NaCl, 5.36 mM KCl, 0.952 mM CaCl2, 0.441 mM KH2PO4, 0.812 mM MgSO4, 5.6 mM D-glucose, 0.383 mM Na2HPO4.2H2O, 10 mM HEPES, pH 7.4 with NaOH). The cells were pre-incubated with another 50 μL of chloride-containing buffer for one hour at approximately 37° C. in a humidified incubator containing approximately 5% CO2 in air.
Assay compound plates were prepared by diluting the compounds of formula (I) with chloride-free buffer (125 mM Na-gluconate, 4.8 mM K-gluconate, 1.3 mM Ca-gluconate, 1.2 mM KH2PO4, 1.2 mM MgSO4, 5.6 mM D-glucose, 25 mM HEPES, pH 7.4 with NaOH) in 100% DMSO to a final concentration of 1% DMSO. [^14C]-Uric Uric acid working stock was made by addition of radiolabeled compound to a final concentration of 120 nM in chloride-free buffer. In all wells, the final assay concentration of solvent (DMSO) was 0.25%; the final assay concentration of [^14C]-uric acid was 30 nM in chloride-free buffer and the final compound of formula (I) concentrations ranged from 0 to 10 μM.
After pre-incubation, cells were washed with 50 μL of chloride-free buffer and another 50 μL of chloride-free buffer was added.

URAT-1 transporter, sequence (Q96S37 other isoform, or with tags, fused parts or gaps): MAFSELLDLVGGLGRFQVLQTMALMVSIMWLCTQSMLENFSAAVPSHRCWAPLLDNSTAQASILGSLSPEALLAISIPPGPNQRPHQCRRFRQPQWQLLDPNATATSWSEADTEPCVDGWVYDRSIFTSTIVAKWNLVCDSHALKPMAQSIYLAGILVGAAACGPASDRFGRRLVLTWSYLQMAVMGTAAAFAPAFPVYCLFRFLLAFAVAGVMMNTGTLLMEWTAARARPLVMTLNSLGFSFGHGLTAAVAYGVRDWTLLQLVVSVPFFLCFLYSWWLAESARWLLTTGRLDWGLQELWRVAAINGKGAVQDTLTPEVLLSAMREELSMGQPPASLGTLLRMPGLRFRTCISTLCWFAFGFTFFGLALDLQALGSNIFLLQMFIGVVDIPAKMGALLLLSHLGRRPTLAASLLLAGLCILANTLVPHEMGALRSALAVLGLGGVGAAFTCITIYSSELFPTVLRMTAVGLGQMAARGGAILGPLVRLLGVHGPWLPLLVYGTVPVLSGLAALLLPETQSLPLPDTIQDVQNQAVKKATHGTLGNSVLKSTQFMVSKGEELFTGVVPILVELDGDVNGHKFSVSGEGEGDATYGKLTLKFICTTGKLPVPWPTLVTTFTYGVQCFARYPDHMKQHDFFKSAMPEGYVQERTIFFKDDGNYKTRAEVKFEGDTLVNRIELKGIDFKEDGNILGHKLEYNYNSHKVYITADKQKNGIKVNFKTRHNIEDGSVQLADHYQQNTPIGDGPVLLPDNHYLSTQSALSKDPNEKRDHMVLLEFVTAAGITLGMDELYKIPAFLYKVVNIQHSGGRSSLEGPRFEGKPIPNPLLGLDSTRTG

SMILES	IC50 [nM]
N#Cc1cc(S(=O)(=O)Nc2ccc(F)cn2)ccc1Oc1ccc(C#N)c(C2CC2)c1 [Example 203, 3-cyano-4-(4-cyano-3-cyclopropylphenoxy)-N-(5-fluoropyridin-2-yl)benzenesulfonamide]	37
COc1ccc(C#N)cc1Oc1ccc(S(=O)(=O)Nc2ccc(F)cn2)cc1C#N [Example 197, 3-cyano-4-(5-cyano-2-methoxyphenoxy)-N-(5-fluoropyridin-2-yl)benzenesulfonamide]	> 10000
CC(C)Oc1ccccc1Oc1ccc(S(=O)(=O)Nc2ccc(F)cn2)cc1C#N [Example 207, 3-cyano-N-(5-fluoropyridin-2-yl)-4-[2-(propan-2-yloxy)phenoxy]benzenesulfonamide]	> 10000
N#Cc1ccc(Oc2c(F)cc(S(=O)(=O)Nc3ccc(F)cn3)cc2C#N)cc1Cl [Example 248, 4-(3-chloro-4-cyanophenoxy)-3-cyano-5-fluoro-N-(5-fluoropyridin-2-yl)benzenesulfonamide]	324
N#Cc1ccc(Oc2cc(F)c(S(=O)(=O)Nc3ccc(F)cn3)cc2F)cc1F [Example 95, 4-(4-cyano-3-fluorophenoxy)-2,5-difluoro-N-(5-fluoropyridin-2-yl)benzenesulfonamide]	> 10000
N#Cc1ccc(Oc2cc(F)c(S(=O)(=O)Nc3ccc(F)cn3)cc2Cl)cc1F [compound 215]	> 10000
Cc1ccc(Oc2ccc(S(=O)(=O)Nc3ccc(F)cn3)cc2C#N)cc1 [Example 191, 3-cyano-N-(5-fluoropyridin-2-yl)-4-(4-methylphenoxy)benzenesulfonamide]	1990
CC(C)(C)c1ccc(Oc2ccc(S(=O)(=O)Nc3ccc(F)cn3)cc2C#N)cc1 [Example 137, 4-(4-tert-butylphenoxy)-3-cyano-N-(5-fluoropyridin-2-yl)benzenesulfonamide]	> 10000
COc1cc(Cl)cc(Oc2ccc(S(=O)(=O)Nc3ccc(F)cn3)cc2C#N)c1 [Example 162, 4-(3-chloro-5-methoxyphenoxy)-3-cyano-N-(5-fluoropyridin-2-yl)benzenesulfonamide]	125
N#Cc1cc(S(=O)(=O)Nc2ccc(F)cn2)ccc1Oc1cccc(C2CC2)c1 [Example 118, 3-cyano-4-(3-cyclopropylphenoxy)-N-(5-fluoropyridin-2-yl)benzenesulfonamide]	> 10000

Second part, the compound after the results:

IC50 [nM]	SMILES
74	COc1cccc(F)c1Oc1ccc(S(=O)(=O)Nc2ccc(F)cn2)cc1C#N [Example 111, 3-cyano-4-(2-fluoro-6-methoxyphenoxy)-N-(5-fluoropyridin-2-yl)benzenesulfonamide]
55	N#Cc1cc(S(=O)(=O)Nc2ccc(F)cn2)ccc1Oc1ccc(F)c(Cl)c1Cl [Example 38, 3-cyano-4-(2,3-dichloro-4-fluorophenoxy)-N-(5-fluoropyridin-2-yl)benzenesulfonamide]
119	COc1cc(F)cc(Oc2ccc(S(=O)(=O)Nc3ccc(F)cn3)cc2C#N)c1 [Example 8, 3-cyano-4-(3-fluoro-5-methoxyphenoxy)-N-(5-fluoropyridin-2-yl)benzenesulfonamide]
15	N#Cc1ccc(Oc2ccc(S(=O)(=O)Nc3cc(F)ccn3)cc2C#N)cc1Cl [Example 104, 4-(3-chloro-4-cyanophenoxy)-3-cyano-N-(4-fluoropyridin-2-yl)benzenesulfonamide]
57	N#Cc1cc(Oc2ccc(S(=O)(=O)Nc3ccc(F)cn3)cc2C#N)ccc1F [Example 19, 3-cyano-4-(3-cyano-4-fluorophenoxy)-N-(5-fluoropyridin-2-yl)benzenesulfonamide]
75	COc1ccccc1Oc1ccc(S(=O)(=O)Nc2ccc(F)cn2)cc1C#N [Example 142, 3-cyano-N-(5-fluoropyridin-2-yl)-4-(2-methoxyphenoxy)benzenesulfonamide]
107	CCc1ccccc1Oc1ccc(S(=O)(=O)Nc2ccc(F)cn2)cc1C#N [Example 46, 3-cyano-4-(2-ethylphenoxy)-N-(5-fluoropyridin-2-yl)benzenesulfonamide]
